According to US20240246964A1 (Arbutus Biopharma Corporation, priority 2021, published 2024):

Biological target: human PD-L1 (Homo sapiens (Human), UniProt Q9NZQ7)
Test: T cell activation luciferase reporter cell culture system (T Cell Activation Assay)
Format: cell-based
Conditions: luciferase reporter assay; PD-L1 aAPC/CHO-K1 cells with PD-1 effector Jurkat T cells

Chain of human PD-L1 (Q9NZQ7 19-290): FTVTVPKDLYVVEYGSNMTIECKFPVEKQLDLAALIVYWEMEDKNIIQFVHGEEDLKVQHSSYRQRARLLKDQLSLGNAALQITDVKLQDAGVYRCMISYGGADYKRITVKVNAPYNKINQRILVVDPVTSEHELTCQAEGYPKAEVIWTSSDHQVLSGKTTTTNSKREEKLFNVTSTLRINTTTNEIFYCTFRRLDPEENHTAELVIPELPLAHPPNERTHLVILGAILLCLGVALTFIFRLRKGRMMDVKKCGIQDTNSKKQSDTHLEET

| SMILES | EC50 |
| --- | --- |
| COc1cc(-c2nccc(-c3cccc(-c4ccc(CNC5CCOCC5)c(OC)n4)c3Cl)c2C#N)ccc1CNC1CCOCC1 [Example 434, 4-(2-Chloro-3-(6-methoxy-5-(((tetrahydro-2H-pyran-4-yl)amino)methyl)pyridin-2-yl)phenyl)-2-(3-methoxy-4-(((tetrahydro-2H-pyran-4-yl)amino)methyl)phenyl)nicotinonitrile] | 37.8 nM |
| COc1cc(-c2nccc(-c3cccc(-c4ccc(CN5CC[C@H](O)C5)c(OC)n4)c3Cl)c2Cl)ccc1CN1CC[C@H](O)C1 [Example 435, (S)-1-((6-(2-Chloro-3-(3-chloro-2-(4-(((S)-3-hydroxypyrrolidin-1-yl)methyl)-3-methoxyphenyl)pyridin-4-yl)phenyl)-2-methoxypyridin-3-yl)methyl)pyrrolidin-3-ol] | 9.95 nM |
| COc1cc(-c2nccc(-c3cccc(-c4ccc(CN(C)C5CCOCC5)c(OC)n4)c3Cl)c2Cl)ccc1CNC1CCN(C(C)=O)CC1 [Example 436, 1-(4-((4-(3-chloro-4-(2-chloro-3-(6-methoxy-5-((methyl(tetrahydro-2H-pyran-4-yl)amino)methyl)pyridin-2-yl)phenyl)pyridin-2-yl)-2-methoxybenzyl)amino)piperidin-1-yl)ethan-1-one] | 134 nM |
| COc1cc(-c2nccc(-c3cccc(-c4ccc(CNC5CCN(CC(F)(F)F)CC5)c(OC)n4)c3Cl)c2Cl)ccc1CNC1CCN(CC(F)(F)F)CC1 [Example 437, N-((6-(2-Chloro-3-(3-chloro-2-(3-methoxy-4-(((1-(2,2,2-trifluoroethyl)piperidin-4-yl)amino)methyl)phenyl)pyridin-4-yl)phenyl)-2-methoxypyridin-3-yl)methyl)-1-(2,2,2-trifluoroethyl)piperidin-4-amine] | 157 nM |
| COc1cc(-c2nccc(-c3cccc(-c4ccc(CNC5CCN(C(=O)CO)CC5)c(OC)n4)c3Cl)c2Cl)ccc1CNC1CCN(C(=O)CO)CC1 [Example 443, 1-(4-(((6-(2-Chloro-3-(3-chloro-2-(4-(((1-(2-hydroxyacetyl)piperidin-4-yl)amino)methyl)-3-methoxyphenyl)pyridin-4-yl)phenyl)-2-methoxypyridin-3-yl)methyl)amino)piperidin-1-yl)-2-hydroxyethan-1-one] | 10.5 nM |
| COc1cc(-c2nccc(-c3cccc(-c4ccc(CNC5CCN(c6ccccn6)CC5)c(OC)n4)c3Cl)c2Cl)ccc1CNC1CCN(c2ccccn2)CC1 [Example 444, N-((6-(2-Chloro-3-(3-chloro-2-(3-methoxy-4-(((1-(pyridin-2-yl)piperidin-4-yl)amino)methyl)phenyl)pyridin-4-yl)phenyl)-2-methoxypyridin-3-yl)methyl)-1-(pyridin-2-yl)piperidin-4-amine] | ≥ 10000 nM |
| COc1cc(-c2nccc(-c3cccc(-c4ccc(CNC5CCN(c6ncccc6Cl)CC5)c(OC)n4)c3Cl)c2Cl)ccc1CNC1CCN(c2ncccc2Cl)CC1 [Example 445, N-((6-(2-Chloro-3-(3-chloro-2-(4-(((1-(3-chloropyridin-2-yl)piperidin-4-yl)amino)methyl)-3-methoxyphenyl)pyridin-4-yl)phenyl)-2-methoxypyridin-3-yl)methyl)-1-(3-chloropyridin-2-yl)piperidin-4-amine] | ≥ 10000 nM |
| COc1cc(-c2nccc(-c3cccc(-c4ccc(CN5CCC(OC)CC5)c(OC)n4)c3Cl)c2Cl)ccc1CN1CCC(OC)CC1 [Example 447, 3-Chloro-4-(2-chloro-3-(6-methoxy-5-((4-methoxypiperidin-1-yl)methyl)pyridin-2-yl)phenyl)-2-(3-methoxy-4-((4-methoxypiperidin-1-yl)methyl)phenyl)pyridine] | 61.3 nM |
| COc1cc(-c2nccc(-c3cccc(-c4ccc(CN[C@H]5CC[C@@H](OC)CC5)c(OC)n4)c3Cl)c2Cl)ccc1CN[C@H]1CC[C@@H](OC)CC1 [Example 448, (1s,4s)-N-((6-(2-Chloro-3-(3-chloro-2-(3-methoxy-4-((((1s,4s)-4-methoxycyclohexyl)amino)methyl)phenyl)pyridin-4-yl)phenyl)-2-methoxypyridin-3-yl)methyl)-4-methoxycyclohexan-1-amine] | 76.3 nM |
| COc1cc(-c2nccc(-c3cccc(-c4ccc(CN5CC6(CNC(=O)C6)C5)c(OC)n4)c3F)c2F)ccc1CN1CC2(CNC(=O)C2)C1 [Example 451, 2-(4-(3-Fluoro-4-(2-fluoro-3-(6-methoxy-5-((7-oxo-2,6-diazaspiro[3.4]octan-2-yl)methyl)pyridin-2-yl)phenyl)pyridin-2-yl)-2-methoxybenzyl)-2,6-diazaspiro[3.4]octan-7-one] | 1970 nM |
| COc1nc(-c2cccc(-c3ccnc(-c4cc(OC)c5nc(CN[C@H]6CC[C@H](O)CC6)cn5c4)c3Cl)c2Cl)ccc1CN[C@H]1CC[C@H](O)CC1 [Example 453, (1r,4r)-4-(((6-(2-Chloro-3-(3-chloro-2-(2-((((1r,4r)-4-hydroxycyclohexyl)amino)methyl)-8-methoxyimidazo[1,2-a]pyridin-6-yl)pyridin-4-yl)phenyl)-2-methoxypyridin-3-yl)methyl)amino)cyclohexan-1-ol] | 270 nM |
| COc1nc(-c2cccc(-c3ccnc(-c4cc(OC)c5nc(CN6CC7(CCC(=O)N7)C6)cn5c4)c3Cl)c2Cl)ccc1CN1CC2(CCC(=O)N2)C1 [Example 454, 2-((6-(2-Chloro-3-(3-chloro-2-(8-methoxy-2-((6-oxo-2,5-diazaspiro[3.4]octan-2-yl)methyl)imidazo[1,2-a]pyridin-6-yl)pyridin-4-yl)phenyl)-2-methoxypyridin-3-yl)methyl)-2,5-diazaspiro[3.4]octan-6-one] | 203 nM |
| COc1nc(-c2cccc(-c3ccnc(-c4cc(OC)c5nc(CN6CC(C)(O)C6)cn5c4)c3Cl)c2Cl)ccc1CN1CC(C)(O)C1 [Example 455, 1-((6-(2-Chloro-3-(3-chloro-2-(2-((3-hydroxy-3-methylazetidin-1-yl)methyl)-8-methoxyimidazo[1,2-a]pyridin-6-yl)pyridin-4-yl)phenyl)-2-methoxypyridin-3-yl)methyl)-3-methylazetidin-3-ol] | 174 nM |
| COc1cc(-c2nccc(-c3cccc(-c4ccc(CNC5CCN(C(=O)C6CCCCC6)CC5)c(OC)n4)c3Cl)c2Cl)ccc1CNC1CCN(C(=O)C2CCCCC2)CC1 [Example 456, (4-(((6-(2-Chloro-3-(3-chloro-2-(4-(((1-(cyclohexanecarbonyl)piperidin-4-yl)amino)methyl)-3-methoxyphenyl)pyridin-4-yl)phenyl)-2-methoxypyridin-3-yl)methyl)amino)piperidin-1-yl)(cyclohexyl)methanone] | 291 nM |
| COc1cc(-c2nccc(-c3cccc(-c4ccc(CN5CCNC(=O)C5)c(OC)n4)c3Cl)c2Cl)ccc1CN1CCNC(=O)C1 [Example 457, 4-((6-(2-Chloro-3-(3-chloro-2-(3-methoxy-4-((3-oxopiperazin-1-yl)methyl)phenyl)pyridin-4-yl)phenyl)-2-methoxypyridin-3-yl)methyl)piperazin-2-one] | ≥ 10000 nM |
| COc1cc(-c2nccc(-c3cccc(-c4ccc(CNC5CCN(C(C)=O)CC5)c(OC)n4)c3Cl)c2Cl)ccc1CN1CCC(O)CC1 [Example 459, 1-(4-(((6-(2-Chloro-3-(3-chloro-2-(4-((4-hydroxypiperidin-1-yl)methyl)-3-methoxyphenyl)pyridin-4-yl)phenyl)-2-methoxypyridin-3-yl)methyl)amino)piperidin-1-yl)ethan-1-one] | 33 nM |
| COc1nc(-c2cccc(-c3ccnc(-c4cc5c(=O)n(CCNCC(=O)O)c(OC)nn5c4)c3Cl)c2Cl)ccc1CNC[C@@H]1CCC(=O)N1 [Example 460, (S)-(2-(6-(3-Chloro-4-(2-chloro-3-(6-methoxy-5-((((5-oxopyrrolidin-2-yl)methyl)amino)methyl)pyridin-2-yl)phenyl)pyridin-2-yl)-2-methoxy-4-oxopyrrolo[2,1-f][1,2,4]triazin-3(4H)-yl)ethyl)glycine] | 96.5 nM |
| COc1cc(-c2nccc(-c3cccc(-c4ccc(CN5CCC(NC(C)=O)CC5)c(OC)n4)c3C)c2C)ccc1CN1CCC(NC(C)=O)CC1 [Example 461, N-(1-((6-(3-(2-(4-((4-Acetamidopiperidin-1-yl)methyl)-3-methoxyphenyl)-3-methylpyridin-4-yl)-2-methylphenyl)-2-methoxypyridin-3-yl)methyl)piperidin-4-yl)acetamide] | ≥ 10000 nM |
| COc1cc(-c2nccc(-c3cccc(-c4ccc(CN[C@H]5CC[C@H](O)CC5)c(OC)n4)c3Cl)c2C)ccc1CN[C@H]1CC[C@H](O)CC1 [Example 463, (1r,4r)-4-(((6-(2-Chloro-3-(2-(4-((((1r,4r)-4-hydroxycyclohexyl)amino)methyl)-3-methoxyphenyl)-3-methylpyridin-4-yl)phenyl)-2-methoxypyridin-3-yl)methyl)amino)cyclohexan-1-ol] | 288 nM |
| COc1cc(-c2nccc(-c3cccc(-c4ccc(CN5CC6(COC6)C5)c(OC)n4)c3Cl)c2C)ccc1CN1CC2(COC2)C1 [Example 464, 6-(4-(4-(3-(5-((2-Oxa-6-azaspiro[3.3]heptan-6-yl)methyl)-6-methoxypyridin-2-yl)-2-chlorophenyl)-3-methylpyridin-2-yl)-2-methoxybenzyl)-2-oxa-6-azaspiro[3.3]heptane] | 226 nM |
| COC(=O)N1CCC(NCc2ccc(-c3nccc(-c4cccc(-c5ccc(CNC6CCN(C(=O)OC)CC6)c(OC)n5)c4Cl)c3Cl)cc2OC)CC1 [Example 465, Methyl 4-(((6-(2-chloro-3-(3-chloro-2-(3-methoxy-4-(((1-(methoxycarbonyl)piperidin-4-yl)amino)methyl)phenyl)pyridin-4-yl)phenyl)-2-methoxypyridin-3-yl)methyl)amino)piperidine-1-carboxylate] | 48.3 nM |
| COc1cc(-c2nccc(-c3cccc(-c4ccc(CN5CCC(NC(C)=O)CC5)c(OC)n4)c3Cl)c2C)ccc1CN1CCC(NC(C)=O)CC1 [Example 466, N-(1-((6-(3-(2-(4-((4-Acetamidopiperidin-1-yl)methyl)-3-methoxyphenyl)-3-methylpyridin-4-yl)-2-chlorophenyl)-2-methoxypyridin-3-yl)methyl)piperidin-4-yl)acetamide] | ≥ 10000 nM |
